Laboratory results published in patent US12642779B1, “Albuterol aerosol suspension formulation for oral inhalation with high amount of green propellant hydrofluoroolefin (HFO) and free of co-solvent” (Amphastar Pharmaceuticals, Inc., priority 2025, dated 2026).
Like-named read-outs stand apart in the source and are kept apart here.

Columns and labels:
[1] = cited from earlier work
[2] = Surfactant solubility in HFO-1234ze (E) propellant; type: physicochemical

FC(C(F)(F)F)C(F)(F)F [HFA-227, 1,1,1,2,3,3,3-Heptafluoropropane]
Liquid Density at 20° C. [1]: 1.41 g/mL | Vapor Pressure at 20° C. [1]: 56.6 psi | Viscosity at 20° C. [1]: 0.26 cP | Water solubility ([1]; at 25° C.): 610 at 25 °C ppm

polyethylene glycol 1000 [PEG 1000]
Solubility of surfactant in HFO-1234ze (E) [2]: exhibited certain solubility in HFO-1234ze (E) and showed homogenous phase

polyoxyethylene (20) sorbitan monooleate [polysorbate 80]
Solubility of surfactant in HFO-1234ze (E) [2]: exhibited certain solubility in HFO-1234ze (E) and showed homogenous phase

polyoxyethylene (20) sorbitan monolaurate [polysorbate 20]
Solubility of surfactant in HFO-1234ze (E) ([2]; in HFO-1234ze (E) propellant): exhibited certain solubility in HFO-1234ze (E) and showed homogenous phase

sorbitan trioleate [span 85]
Solubility of surfactant in HFO-1234ze (E) [2]: exhibited certain solubility in HFO-1234ze (E) and showed homogenous phase

FCC(F)(F)F [HFA-134a, 1,1,1,2-Tetrafluoroethane]
Liquid Density at 20° C. [1]: 1.21 g/mL | Vapor Pressure at 20° C. [1]: 83.0 psi | Viscosity at 20° C. [1]: 0.20 cP | Water solubility ([1]; at 25° C.): 1100 at 25 °C ppm

polyvinylpyrrolidone K25 [PVP K25]
Solubility of surfactant in HFO-1234ze (E) [2]: exhibited certain solubility in HFO-1234ze (E) and showed homogenous phase

F/C=C/C(F)(F)F [HFO-1234ze(E), Trans-1,3,3,3-Tetrafluoropropene]
Liquid Density at 20° C. [1]: 1.19 g/mL | Vapor Pressure at 20° C. [1]: 46.4 psi | Viscosity at 20° C. [1]: 0.19 cP | Water solubility ([1]; at 20° C.): 225 at 20 °C ppm
